Source: patent US20180280400A1, “TRANSDERMAL ADMINISTRATION SYSTEM FOR USE IN THE TREATMENT OF CHRONIC BRONCHOPULMONARY DISEASES” (ABC FARMACEUTICI S.P.A., priority 2013, published 2018)

What was measured:
[1] = system: human keratinocyte cell lines (HACAT); assay: MTT cytotoxicity test, HACAT; type: cell-based
[2] = system: human fibroblast cell lines (HFF); assay: MTT cytotoxicity test, HFF; type: cell-based
[3] = system: human endothelial cells from the umbilical vein (HUVEC); assay: MTT cytotoxicity test, HUVEC; type: cell-based
[4] = In vitro-ex vivo skin permeation across human epidermis, Franz diffusion cells; type: in vitro ADME; conditions: 4% w/v, up to 24 hours
Protocol: The Franz diffusion cells comprise two compartments, one containing the active ingredient (donor vehicle) and the other containing a receiving solution, separated by a slice of human epidermis. The vertical cells used in the actual experimental unit have a wider column than that in the original Franz type of diffusion cell, and the decanter shape was dispensed with. These have a diffusion area of 0.636 cm^2 and a receiving compartment of approximately 3.0 ml. The receiving volume in each cell is individually calibrated and equipped with a magnetic stirrer. Human epidermis was selected as the membrane for skin permeation studies. The skin used in the studies was obtained from the abdominal skin of a donor who underwent cosmetic surgery. The skin samples were prepared following an internal standard procedure. The full thickness of the skin was sealed in evacuated plastic bags and frozen at -20° C. within 6 hours of removal. Before the experiments the skin was thawed out at ambient temperature and excess fat was completely removed. […] The integrity of the skin was evaluated by measuring the impedance of each sample (Agilent LCR Meter 4263B). Subsequently the epidermis was mounted in the Franz diffusion cell, the receiving compartment of which was filled with saline solution (NaCl 0.9% w/v) filtered using a 0.22 μm filter (VWR, nylon membrane). […]

in vitro = conditions: dog, MDCK, pH 7.4
Protocol: (§1) MDCK cells were kept in Minimal Essential Medium Eagle (EMEM) containing 10% FBS, 2 nM of fresh L-glutamine and 2 nM of penicillin-streptomycin. The culture inserts were inseminated with 664000 cells per cm^2 (0.33 cm^2 per insert). The monolayers of MDCK were cultured for three days before use. The monolayers were washed with Hanks Balanced Salt Solution (HBSS+10 nM Hepes pH 7.4) transport medium; the electrical resistance of each monolayer was measured at 37° C. using a Millicell ERS-2 (Millipore). Background resistance values were subtracted from the resistance values of treated wells of monolayer. The resulting value was multiplied by the area of the membrane (0.33 cm^2) to calculate the transepithelial electrical resistance values (TEER (Ω cm^2)) for each monolayer. TEER values indicate the degree of confluence of the monolayer and the development of tight junctions. If the resistance was <200 Ω cm^2 the test was continued. MDCK monolayers having TEER values>200 Ω cm^2 were not used. The donor solutions in the transport test comprised 100 μM of test compound in the transport medium containing 100 nM of fluorescein isocyanate-dextran. The transport tests were performed using 0.250 ml of apical donor solution and 1 ml of basolateral acceptor solution (transport medium, pH 7.4). […] The monolayers were incubated with donor and acceptor solutions for 120 minutes at 37° C. The basolateral compartments were sampled after 120 minutes and analysed using LC-MS/MS, together with an aliquot of the donor solutions in the transport test (100 μM of the test compound) corresponding to (sample at time zero).
(§2) in which dQ/dt is the permeation velocity, CA is the initial concentration in the donor compartment and A is the surface area of the filter. […]
(§3) The integrated peak area for the LC-MS/MS chromatograms was used as the instrument response (INRE) for relative quantification of the test material.
(§4) The permeability of the test material was then evaluated by comparing the INRE for five replicates after two hours incubation, on the basis of the INRE response to the t0 samples.

[5] = with chemical potentiating agents, including oleic acid; cited from earlier work

Protocol for MDCK monolayers: as §1, §2, §3, §4

permeability value (in words) (MDCK monolayers) | Papp A→B at 120 min, 100 µM (in vitro) [×10⁻⁶ cm/s] | SMILES | cytotoxicity (MTT test) [1] | cytotoxicity (MTT test) [2] | cytotoxicity (MTT test) [3] | skin permeability values (permeate over time) ([4]; aqueous solvent, FIG. 1) | skin permeability values (permeate over time) ([4]; triacetin solvent, FIG. 2) | administered flow through human skin [5]
high permeability value | 22.7 | Cn1c(=O)c2c(ncn2CC2OCCO2)n(C)c1=O [Doxofylline, 2-(7′-theophyllinemethyl)-1,3-dioxolane] | no cytotoxicity | no cytotoxicity | no cytotoxicity | substantially higher than those for theophylline | substantially higher than those for theophylline | –
– | 6.52 | COCCc1ccc(OCC(O)CNC(C)C)cc1 (stereo not drawn) [Metoprolol, metoprolol] | – | – | – | – | – | –
– | – | Cn1c(=O)c2[nH]cnc2n(C)c1=O [Theophylline, theophylline] | – | – | – | – | – | insufficient
